Measurements as given in ChEMBL document CHEMBL5303765, “Data for DCP probe BAY-7081” (2023).

Assays:
[1] = target: T1, Serine/threonine-protein kinase 4 (Homo sapiens) (UniProt Q13043); test: STK4 SGC Tm panel (DSF); conditions: for ΔTm: Compound concentration 10.0 uM
T1 sequence (whole entry): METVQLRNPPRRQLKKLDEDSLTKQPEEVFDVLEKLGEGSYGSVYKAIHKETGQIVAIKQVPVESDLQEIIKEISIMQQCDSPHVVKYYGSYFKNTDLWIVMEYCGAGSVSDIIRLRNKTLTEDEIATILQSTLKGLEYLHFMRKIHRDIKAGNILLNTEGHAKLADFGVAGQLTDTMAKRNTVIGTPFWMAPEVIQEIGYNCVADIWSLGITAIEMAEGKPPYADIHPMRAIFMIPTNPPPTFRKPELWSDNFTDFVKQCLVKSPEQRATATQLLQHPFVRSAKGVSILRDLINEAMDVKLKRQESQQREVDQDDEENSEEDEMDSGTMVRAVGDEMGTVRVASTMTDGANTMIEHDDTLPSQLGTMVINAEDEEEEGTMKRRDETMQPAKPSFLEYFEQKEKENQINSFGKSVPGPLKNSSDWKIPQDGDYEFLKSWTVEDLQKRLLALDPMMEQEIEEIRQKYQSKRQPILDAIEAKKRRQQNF

[2] = target: Serine/threonine-protein kinase PAK 1 (Homo sapiens) (UniProt Q13153); test: PAK1 SGC Tm panel (DSF); conditions: for ΔTm: Compound concentration 10.0 uM
[3] = target: Ephrin type-A receptor 2 (Homo sapiens) (UniProt P29317); test: EPHA2 SGC Tm panel (DSF); conditions: for ΔTm: Compound concentration 10.0 uM
[4] = target: Serine/threonine-protein kinase PAK 4 (Homo sapiens) (UniProt O96013); test: PAK4 SGC Tm panel (DSF); conditions: for ΔTm: Compound concentration 10.0 uM
[5] = target: Death-associated protein kinase 1 (Homo sapiens) (UniProt P53355); test: DAPK1 SGC Tm panel (DSF); conditions: for ΔTm: Compound concentration 10.0 uM
[6] = target: Delta-type opioid receptor (Homo sapiens) (UniProt P41143); conditions: Compound concentration 10.0 uM
[7] = target: T2, Serine/threonine-protein kinase Nek1 (Homo sapiens) (UniProt Q96PY6); test: NEK1 SGC Tm panel (DSF); conditions: for ΔTm: Compound concentration 10.0 uM
T2 sequence (whole entry): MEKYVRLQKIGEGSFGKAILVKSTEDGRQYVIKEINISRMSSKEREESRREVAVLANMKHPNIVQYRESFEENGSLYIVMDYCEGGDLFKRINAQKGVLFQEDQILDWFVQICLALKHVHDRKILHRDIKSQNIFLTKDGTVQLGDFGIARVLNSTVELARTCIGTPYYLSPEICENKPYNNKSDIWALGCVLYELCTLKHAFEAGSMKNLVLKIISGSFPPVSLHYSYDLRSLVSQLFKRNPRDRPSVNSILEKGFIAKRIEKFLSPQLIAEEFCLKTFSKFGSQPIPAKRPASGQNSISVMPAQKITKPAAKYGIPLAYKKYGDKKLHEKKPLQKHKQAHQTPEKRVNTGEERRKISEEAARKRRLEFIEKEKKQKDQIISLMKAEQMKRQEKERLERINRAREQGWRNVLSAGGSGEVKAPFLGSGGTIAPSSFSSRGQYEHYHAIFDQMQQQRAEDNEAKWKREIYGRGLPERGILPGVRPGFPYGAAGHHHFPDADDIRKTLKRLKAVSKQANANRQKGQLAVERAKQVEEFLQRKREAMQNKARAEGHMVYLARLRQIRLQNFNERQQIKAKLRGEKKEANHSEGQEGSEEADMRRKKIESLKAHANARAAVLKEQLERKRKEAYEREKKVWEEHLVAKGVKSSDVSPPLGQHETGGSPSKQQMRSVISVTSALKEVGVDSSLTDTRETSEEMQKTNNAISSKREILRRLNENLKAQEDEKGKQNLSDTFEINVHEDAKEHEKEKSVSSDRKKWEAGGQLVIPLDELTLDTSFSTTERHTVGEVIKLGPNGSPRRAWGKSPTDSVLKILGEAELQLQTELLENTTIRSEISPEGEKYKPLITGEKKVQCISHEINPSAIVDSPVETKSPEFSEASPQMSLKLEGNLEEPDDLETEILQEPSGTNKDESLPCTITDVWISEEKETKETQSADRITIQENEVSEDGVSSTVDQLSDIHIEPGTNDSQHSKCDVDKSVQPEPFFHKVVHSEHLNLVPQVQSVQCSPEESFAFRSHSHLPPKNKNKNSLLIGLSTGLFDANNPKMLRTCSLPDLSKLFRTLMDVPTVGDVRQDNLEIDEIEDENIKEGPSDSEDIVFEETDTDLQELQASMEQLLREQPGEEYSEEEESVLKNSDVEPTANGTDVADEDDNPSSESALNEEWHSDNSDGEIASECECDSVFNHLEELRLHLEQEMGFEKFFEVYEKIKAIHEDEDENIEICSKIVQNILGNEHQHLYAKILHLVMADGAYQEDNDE

[8] = target: Casein kinase II subunit alpha' (Homo sapiens) (UniProt P19784); test: CSNK2A2 SGC Tm panel (DSF); conditions: for ΔTm: Compound concentration 10.0 uM
[9] = target: Mitogen-activated protein kinase 14 (Homo sapiens) (UniProt Q16539); test: MAPK14 SGC Tm panel (DSF); conditions: for ΔTm: Compound concentration 10.0 uM
[10] = target: T3, Dual specificity tyrosine-phosphorylation-regulated kinase 2 (Homo sapiens) (UniProt Q92630); test: DYRK2 SGC Tm panel (DSF); conditions: for ΔTm: Compound concentration 10.0 uM
T3 sequence (whole entry): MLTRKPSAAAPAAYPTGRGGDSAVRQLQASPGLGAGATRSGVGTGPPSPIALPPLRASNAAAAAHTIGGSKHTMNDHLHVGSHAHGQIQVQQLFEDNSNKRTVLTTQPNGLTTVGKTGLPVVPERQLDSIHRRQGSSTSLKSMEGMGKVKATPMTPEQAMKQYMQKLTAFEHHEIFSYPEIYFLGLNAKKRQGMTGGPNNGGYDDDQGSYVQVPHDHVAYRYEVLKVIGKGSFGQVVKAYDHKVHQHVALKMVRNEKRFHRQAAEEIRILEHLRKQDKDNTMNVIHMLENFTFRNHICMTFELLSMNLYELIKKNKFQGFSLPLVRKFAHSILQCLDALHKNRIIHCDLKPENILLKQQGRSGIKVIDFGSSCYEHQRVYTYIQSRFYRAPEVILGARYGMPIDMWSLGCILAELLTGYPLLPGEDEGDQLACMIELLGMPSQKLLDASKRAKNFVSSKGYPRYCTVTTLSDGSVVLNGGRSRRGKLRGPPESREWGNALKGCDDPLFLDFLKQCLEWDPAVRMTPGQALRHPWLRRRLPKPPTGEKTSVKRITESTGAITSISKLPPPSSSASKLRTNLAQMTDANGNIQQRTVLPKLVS

[11] = target: Serine/threonine-protein kinase Chk2 (Homo sapiens) (UniProt O96017); test: CHEK2 SGC Tm panel (DSF); conditions: for ΔTm: Compound concentration 10.0 uM

Sequence of Mitogen-activated protein kinase 14 (Homo sapiens) (Q16539 whole entry): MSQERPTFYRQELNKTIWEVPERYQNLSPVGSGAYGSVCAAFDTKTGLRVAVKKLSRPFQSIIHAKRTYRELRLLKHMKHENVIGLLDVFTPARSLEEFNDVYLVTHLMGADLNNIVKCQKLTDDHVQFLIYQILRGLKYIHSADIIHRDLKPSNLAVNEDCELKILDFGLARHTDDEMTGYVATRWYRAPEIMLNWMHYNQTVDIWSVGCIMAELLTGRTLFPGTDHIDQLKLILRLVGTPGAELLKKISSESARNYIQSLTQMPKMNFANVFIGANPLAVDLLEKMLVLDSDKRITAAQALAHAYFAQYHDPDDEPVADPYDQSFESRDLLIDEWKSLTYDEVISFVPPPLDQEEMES
Sequence of Death-associated protein kinase 1 (Homo sapiens) (P53355 whole entry, looked up): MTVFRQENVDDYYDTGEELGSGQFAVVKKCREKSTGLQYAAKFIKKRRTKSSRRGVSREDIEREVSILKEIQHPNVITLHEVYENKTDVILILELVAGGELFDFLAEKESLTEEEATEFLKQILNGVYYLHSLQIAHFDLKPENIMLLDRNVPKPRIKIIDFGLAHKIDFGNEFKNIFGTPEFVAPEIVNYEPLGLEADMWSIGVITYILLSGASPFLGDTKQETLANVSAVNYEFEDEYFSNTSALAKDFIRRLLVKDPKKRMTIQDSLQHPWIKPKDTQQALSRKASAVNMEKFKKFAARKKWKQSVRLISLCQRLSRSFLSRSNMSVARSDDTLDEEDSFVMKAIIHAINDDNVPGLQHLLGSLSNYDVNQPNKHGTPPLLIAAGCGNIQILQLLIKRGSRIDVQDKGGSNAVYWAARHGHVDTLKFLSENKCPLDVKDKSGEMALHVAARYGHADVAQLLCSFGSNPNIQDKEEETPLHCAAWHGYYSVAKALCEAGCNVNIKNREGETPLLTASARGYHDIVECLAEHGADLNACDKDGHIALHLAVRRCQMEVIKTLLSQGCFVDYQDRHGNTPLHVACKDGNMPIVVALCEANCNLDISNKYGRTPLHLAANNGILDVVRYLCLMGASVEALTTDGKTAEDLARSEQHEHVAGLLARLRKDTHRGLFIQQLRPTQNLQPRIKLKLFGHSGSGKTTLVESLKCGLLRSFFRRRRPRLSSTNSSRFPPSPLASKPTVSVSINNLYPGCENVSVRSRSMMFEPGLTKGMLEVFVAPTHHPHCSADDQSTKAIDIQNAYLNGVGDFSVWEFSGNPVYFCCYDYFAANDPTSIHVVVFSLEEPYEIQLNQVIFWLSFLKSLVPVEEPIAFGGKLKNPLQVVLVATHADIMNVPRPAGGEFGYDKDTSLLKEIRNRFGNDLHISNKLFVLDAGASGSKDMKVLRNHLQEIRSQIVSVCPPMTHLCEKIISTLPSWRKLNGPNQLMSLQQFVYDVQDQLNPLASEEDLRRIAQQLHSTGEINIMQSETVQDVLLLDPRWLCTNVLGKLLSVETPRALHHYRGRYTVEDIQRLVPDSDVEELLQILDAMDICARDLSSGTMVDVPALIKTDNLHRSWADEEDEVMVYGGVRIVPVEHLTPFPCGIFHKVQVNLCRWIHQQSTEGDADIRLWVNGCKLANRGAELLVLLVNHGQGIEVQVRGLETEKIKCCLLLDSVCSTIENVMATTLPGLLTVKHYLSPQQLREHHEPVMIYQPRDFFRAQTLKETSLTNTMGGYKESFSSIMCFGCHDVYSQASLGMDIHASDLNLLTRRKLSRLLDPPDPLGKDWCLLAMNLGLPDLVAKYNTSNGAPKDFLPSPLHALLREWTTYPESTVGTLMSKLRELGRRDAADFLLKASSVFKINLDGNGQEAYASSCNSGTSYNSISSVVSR
Sequence of Ephrin type-A receptor 2 (Homo sapiens) (P29317 whole entry): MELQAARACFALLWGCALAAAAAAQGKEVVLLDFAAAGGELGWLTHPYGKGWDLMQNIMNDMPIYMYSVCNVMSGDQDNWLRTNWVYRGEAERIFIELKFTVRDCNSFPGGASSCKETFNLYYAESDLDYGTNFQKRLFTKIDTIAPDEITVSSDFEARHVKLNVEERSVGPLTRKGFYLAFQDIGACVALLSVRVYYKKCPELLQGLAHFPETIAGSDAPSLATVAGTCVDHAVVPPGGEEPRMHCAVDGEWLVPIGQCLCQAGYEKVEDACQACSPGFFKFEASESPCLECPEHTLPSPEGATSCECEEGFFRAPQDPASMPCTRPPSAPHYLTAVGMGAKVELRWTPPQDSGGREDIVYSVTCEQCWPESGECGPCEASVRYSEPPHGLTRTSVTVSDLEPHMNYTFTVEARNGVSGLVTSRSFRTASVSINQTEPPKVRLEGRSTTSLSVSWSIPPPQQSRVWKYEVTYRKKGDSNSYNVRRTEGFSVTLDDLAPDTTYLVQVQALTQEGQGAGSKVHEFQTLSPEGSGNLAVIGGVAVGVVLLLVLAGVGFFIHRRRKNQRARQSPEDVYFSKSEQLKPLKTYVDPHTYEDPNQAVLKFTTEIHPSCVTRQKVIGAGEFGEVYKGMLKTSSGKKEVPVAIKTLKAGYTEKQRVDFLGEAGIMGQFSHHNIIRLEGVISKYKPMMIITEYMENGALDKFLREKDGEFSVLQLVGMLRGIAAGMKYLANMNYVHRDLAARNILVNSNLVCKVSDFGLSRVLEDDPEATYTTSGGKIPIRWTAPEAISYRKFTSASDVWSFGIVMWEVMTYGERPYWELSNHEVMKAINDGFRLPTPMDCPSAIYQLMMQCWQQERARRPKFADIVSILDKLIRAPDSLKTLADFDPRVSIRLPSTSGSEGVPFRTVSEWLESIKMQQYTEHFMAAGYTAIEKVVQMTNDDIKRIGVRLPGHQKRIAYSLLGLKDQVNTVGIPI
Sequence of Serine/threonine-protein kinase PAK 1 (Homo sapiens) (Q13153 whole entry): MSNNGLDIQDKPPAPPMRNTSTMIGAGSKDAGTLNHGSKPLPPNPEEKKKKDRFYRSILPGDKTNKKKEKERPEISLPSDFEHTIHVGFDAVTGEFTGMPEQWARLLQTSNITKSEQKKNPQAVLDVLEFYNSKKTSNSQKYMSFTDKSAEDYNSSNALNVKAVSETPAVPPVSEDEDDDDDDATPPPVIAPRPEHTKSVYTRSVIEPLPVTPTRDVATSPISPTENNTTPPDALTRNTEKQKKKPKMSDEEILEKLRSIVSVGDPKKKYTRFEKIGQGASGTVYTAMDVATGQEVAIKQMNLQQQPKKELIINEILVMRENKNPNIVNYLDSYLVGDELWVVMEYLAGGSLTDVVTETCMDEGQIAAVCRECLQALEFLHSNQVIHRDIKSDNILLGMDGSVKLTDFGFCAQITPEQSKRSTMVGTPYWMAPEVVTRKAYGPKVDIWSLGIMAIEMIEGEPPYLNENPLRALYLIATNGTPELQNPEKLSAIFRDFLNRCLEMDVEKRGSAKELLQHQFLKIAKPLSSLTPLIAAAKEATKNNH
Sequence of Serine/threonine-protein kinase PAK 4 (Homo sapiens) (O96013 whole entry, looked up): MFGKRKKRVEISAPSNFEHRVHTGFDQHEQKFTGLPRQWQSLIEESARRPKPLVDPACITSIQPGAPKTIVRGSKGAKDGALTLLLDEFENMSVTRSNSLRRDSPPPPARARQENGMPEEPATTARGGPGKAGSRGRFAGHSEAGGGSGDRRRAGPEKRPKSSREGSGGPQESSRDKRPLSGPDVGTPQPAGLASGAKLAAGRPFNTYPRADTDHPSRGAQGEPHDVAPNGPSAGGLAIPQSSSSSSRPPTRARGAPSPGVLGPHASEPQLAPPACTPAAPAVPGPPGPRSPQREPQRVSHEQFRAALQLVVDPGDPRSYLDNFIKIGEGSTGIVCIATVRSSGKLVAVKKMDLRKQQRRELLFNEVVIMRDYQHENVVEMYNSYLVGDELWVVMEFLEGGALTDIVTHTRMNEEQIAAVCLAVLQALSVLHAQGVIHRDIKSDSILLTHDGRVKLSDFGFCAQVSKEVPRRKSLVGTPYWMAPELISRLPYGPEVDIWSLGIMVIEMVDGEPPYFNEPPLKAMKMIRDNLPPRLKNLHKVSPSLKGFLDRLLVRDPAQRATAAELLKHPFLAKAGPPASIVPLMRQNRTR
Sequence of Delta-type opioid receptor (Homo sapiens) (P41143 whole entry): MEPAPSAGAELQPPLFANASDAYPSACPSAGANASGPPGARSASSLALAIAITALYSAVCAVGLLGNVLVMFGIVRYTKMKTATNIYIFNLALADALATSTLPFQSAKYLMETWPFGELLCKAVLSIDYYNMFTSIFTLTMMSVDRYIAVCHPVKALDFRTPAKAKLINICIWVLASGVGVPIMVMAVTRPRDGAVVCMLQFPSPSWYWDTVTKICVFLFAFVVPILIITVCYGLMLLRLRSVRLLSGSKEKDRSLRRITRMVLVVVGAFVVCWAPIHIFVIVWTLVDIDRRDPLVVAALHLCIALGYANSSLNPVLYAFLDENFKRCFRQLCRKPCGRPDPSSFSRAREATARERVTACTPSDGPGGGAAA
Sequence of Casein kinase II subunit alpha' (Homo sapiens) (P19784 whole entry, looked up): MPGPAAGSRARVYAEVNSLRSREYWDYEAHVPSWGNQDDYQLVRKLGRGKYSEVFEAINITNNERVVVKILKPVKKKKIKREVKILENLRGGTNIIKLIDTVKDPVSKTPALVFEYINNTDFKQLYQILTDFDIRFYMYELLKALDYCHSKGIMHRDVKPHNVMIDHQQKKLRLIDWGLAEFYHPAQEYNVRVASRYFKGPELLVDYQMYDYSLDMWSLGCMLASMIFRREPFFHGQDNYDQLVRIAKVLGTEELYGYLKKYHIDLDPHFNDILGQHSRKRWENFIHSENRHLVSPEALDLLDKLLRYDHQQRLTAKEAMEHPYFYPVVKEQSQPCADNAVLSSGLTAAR

SMILES	delta Tm Staurosporine positive control [1]	ΔTm [1]	delta Tm Staurosporine positive control [2]	ΔTm [2]	delta Tm Staurosporine positive control [3]	ΔTm [3]	delta Tm Staurosporine positive control [4]	ΔTm [4]	delta Tm Staurosporine positive control [5]	ΔTm [5]	inhibition [6] [%]	delta Tm Staurosporine positive control [7]	ΔTm [7]	delta Tm Staurosporine positive control [8]	ΔTm [8]	delta Tm Staurosporine positive control [9]	ΔTm [9]	delta Tm Staurosporine positive control [10]	ΔTm [10]	delta Tm Staurosporine positive control [11]	other results
CCC[C@@H]1CNCc2c1[nH]c(=O)c(C#N)c2N1CCC2(CC1)CC2	16.2	-0.519	7.21	-0.679	7.41	-0.623	15.1	0.121	9.84	-0.225	3.91	2.43	0.25	4.21	-0.242	0.178	-0.46	5.55	-0.189	17.8	ΔTm [11]: -0.386
CCC[C@H]1CNCc2c1[nH]c(=O)c(C#N)c2N1CCC2(CC1)CC2	16.2	-0.568	7.21	-0.68	7.41	-0.621	15.1	0.134	9.84	0.2	-9.99	2.43	0.404	4.21	-0.244	0.178	-0.473	5.55	-0.198	17.8	ΔTm [11]: 3.11
